Data: ChEMBL document CHEMBL1201862, “PubChem BioAssay data set” (2004)
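Five compound concentrations were applied to cells in 96-well plates for 48 hours; endpoints were derived by simple linear interpolation of the resulting dose-response curve. GI50 = concentration required for 50% inhibition of growth.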 Calls of active or inactive are those of the source. Rule as the data show it: active = GI50 up to about 1.1 µM and inactive = higher.

Tests used:
Assay in all cases: NCI tumour cell line growth inhibition, 48 h
A498 = test system: A498
ACHN = test system: ACHN
T47D = test system: T47D
Hs-578T = test system: Hs-578T
A549 = test system: A549
K562 = test system: K562
OVCAR-4 = test system: OVCAR-4
TK-10 = test system: TK-10
NCI-H23 = test system: NCI-H23
MCF7 = test system: MCF7
HT-29 = test system: HT-29
MDA-MB-435 = test system: MDA-MB-435
LOX IMVI = test system: LOX IMVI
SN12C = test system: SN12C
MDA-MB-231 = test system: MDA-MB-231
PC-3 = test system: PC-3
SR = test system: SR
NCI-H522 = test system: NCI-H522
UACC-62 = test system: UACC-62
SNB-19 = test system: SNB-19
UACC-257 = test system: UACC-257
OVCAR-5 = test system: OVCAR-5
NCI/ADR-RES = test system: NCI/ADR-RES
DU-145 = test system: DU-145
HCT-116 = test system: HCT-116
IGROV-1 = test system: IGROV-1
SF-295 = test system: SF-295
MDA-N = test system: MDA-N
SF-539 = test system: SF-539
HOP-62 = test system: HOP-62
SK-MEL-5 = test system: SK-MEL-5
HL-60 = test system: HL-60
OVCAR-8 = test system: OVCAR-8
KM12 = test system: KM12
MOLT-4 = test system: MOLT-4
SF-268 = test system: SF-268
SK-MEL-28 = test system: SK-MEL-28
RXF 393 = test system: RXF 393
HCT-15 = test system: HCT-15
EKVX = test system: EKVX
CAKI-1 = test system: CAKI-1
OVCAR-3 = test system: OVCAR-3
SK-MEL-2 = test system: SK-MEL-2
SK-OV-3 = test system: SK-OV-3
HOP-92 = test system: HOP-92
COLO 205 = test system: COLO 205
SW-620 = test system: SW-620
U-251 = test system: U-251
UO-31 = test system: UO-31
RPMI-8226 = test system: RPMI-8226
M14 = test system: M14
NCI-H460 = test system: NCI-H460
Malme-3M = test system: Malme-3M
BT-549 = test system: BT-549
786-0 = test system: 786-0
SNB-75 = test system: SNB-75
NCI-H226 = test system: NCI-H226
CCRF-CEM = test system: CCRF-CEM

## CC[C@H](C)C1=C(OC(C)=O)[N@+]2([O-])Oc3ccc(-c4c(O)c(O)c(-c5ccc(OC(C)=O)cc5)c(OC(C)=O)c4OC(C)=O)cc3O[C@]2([C@@H](C)CC)C(=O)N1O
A498
  GI50: 7.85 µM (inactive)
ACHN
  GI50: 14.9 µM (inactive)
T47D
  GI50: 15.1 µM (inactive)
Hs-578T
  GI50: 29.3 µM (inactive)
A549
  GI50: 18.8 µM (inactive)
K562
  GI50: 11.7 µM (inactive)
OVCAR-4
  GI50: 11.1 µM (inactive)
TK-10
  GI50: 20.4 µM (inactive)
NCI-H23
  GI50: 29.8 µM (inactive)
MCF7
  GI50: 19.4 µM (inactive)
HT-29
  GI50: 17.6 µM (inactive)
MDA-MB-435
  GI50: 27.1 µM (inactive)
LOX IMVI
  GI50: 17.5 µM (inactive)
SN12C
  GI50: 19.4 µM (inactive)
MDA-MB-231
  GI50: 17.8 µM (inactive)
PC-3
  GI50: 20.6 µM (inactive)
SR
  GI50: 13.6 µM (inactive)
NCI-H522
  GI50: 10.6 µM (inactive)
UACC-62
  GI50: 14.7 µM (inactive)
SNB-19
  GI50: 32.1 µM (inactive)
UACC-257
  GI50: > 50 µM (inactive)
OVCAR-5
  GI50: 22.9 µM (inactive)
NCI/ADR-RES
  GI50: 18.5 µM (inactive)
DU-145
  GI50: 44.5 µM (inactive)
HCT-116
  GI50: 10.8 µM (inactive)
IGROV-1
  GI50: 17 µM (inactive)
SF-295
  GI50: 22.8 µM (inactive)
MDA-N
  GI50: 23.2 µM (inactive)
SF-539
  GI50: 14.2 µM (inactive)
HOP-62
  GI50: 24.6 µM (inactive)
SK-MEL-5
  GI50: 16.4 µM (inactive)
HL-60
  GI50: 15.9 µM (inactive)
OVCAR-8
  GI50: 18.4 µM (inactive)
KM12
  GI50: 20.6 µM (inactive)
MOLT-4
  GI50: 13.2 µM (inactive)
SF-268
  GI50: 18.8 µM (inactive)
SK-MEL-28
  GI50: 27 µM (inactive)
RXF 393
  GI50: 29.6 µM (inactive)
HCT-15
  GI50: 19.2 µM
EKVX
  GI50: 18.8 µM (inactive)
CAKI-1
  GI50: 26.3 µM (inactive)
OVCAR-3
  GI50: 15 µM (inactive)
SK-MEL-2
  GI50: > 50 µM (inactive)
SK-OV-3
  GI50: 17.3 µM (inactive)
HOP-92
  GI50: 3.84 µM (inactive)
COLO 205
  GI50: 19.8 µM (inactive)
SW-620
  GI50: 11.1 µM (inactive)
U-251
  GI50: 24.3 µM (inactive)
UO-31
  GI50: 35 µM (inactive)
RPMI-8226
  GI50: 7.85 µM (inactive)
M14
  GI50: 28.2 µM (inactive)
NCI-H460
  GI50: 18.5 µM (inactive)
Malme-3M
  GI50: 16.6 µM (inactive)
BT-549
  GI50: 16.9 µM (inactive)
786-0
  GI50: 14.1 µM (inactive)

## CC(C)CNC(=O)O
A498
  GI50: > 100 µM (inactive)
ACHN
  GI50: > 100 µM (inactive)
T47D
  GI50: > 100 µM (inactive)
Hs-578T
  GI50: > 100 µM (inactive)
A549
  GI50: > 100 µM (inactive)
K562
  GI50: > 100 µM (inactive)
OVCAR-4
  GI50: > 100 µM (inactive)
TK-10
  GI50: > 100 µM (inactive)
NCI-H23
  GI50: > 100 µM (inactive)
MCF7
  GI50: > 100 µM (inactive)
HT-29
  GI50: > 100 µM (inactive)
MDA-MB-435
  GI50: > 100 µM (inactive)
LOX IMVI
  GI50: > 100 µM (inactive)
SN12C
  GI50: > 100 µM (inactive)
MDA-MB-231
  GI50: > 100 µM (inactive)
PC-3
  GI50: > 100 µM (inactive)
SR
  GI50: > 100 µM (inactive)
NCI-H522
  GI50: > 100 µM (inactive)
UACC-62
  GI50: > 100 µM (inactive)
SNB-19
  GI50: > 100 µM (inactive)
UACC-257
  GI50: > 100 µM (inactive)
SNB-75
  GI50: > 100 µM (inactive)
OVCAR-5
  GI50: > 100 µM (inactive)
NCI/ADR-RES
  GI50: > 100 µM (inactive)
DU-145
  GI50: > 100 µM (inactive)
HCT-116
  GI50: > 100 µM (inactive)
IGROV-1
  GI50: > 100 µM (inactive)
SF-295
  GI50: > 100 µM (inactive)
MDA-N
  GI50: > 100 µM (inactive)
SF-539
  GI50: > 100 µM (inactive)
HOP-62
  GI50: > 100 µM (inactive)
SK-MEL-5
  GI50: > 100 µM (inactive)
HL-60
  GI50: > 100 µM (inactive)
OVCAR-8
  GI50: > 100 µM (inactive)
KM12
  GI50: > 100 µM (inactive)
NCI-H226
  GI50: > 100 µM (inactive)
MOLT-4
  GI50: > 100 µM (inactive)
SF-268
  GI50: > 100 µM (inactive)
SK-MEL-28
  GI50: > 100 µM (inactive)
CCRF-CEM
  GI50: > 100 µM (inactive)
RXF 393
  GI50: > 100 µM (inactive)
HCT-15
  GI50: > 100 µM
EKVX
  GI50: > 100 µM (inactive)
CAKI-1
  GI50: > 100 µM (inactive)
OVCAR-3
  GI50: > 100 µM (inactive)
SK-MEL-2
  GI50: > 100 µM (inactive)
SK-OV-3
  GI50: > 100 µM (inactive)
HOP-92
  GI50: > 100 µM (inactive)
COLO 205
  GI50: > 100 µM (inactive)
SW-620
  GI50: > 100 µM (inactive)
U-251
  GI50: > 100 µM (inactive)
UO-31
  GI50: > 100 µM (inactive)
RPMI-8226
  GI50: > 100 µM (inactive)
M14
  GI50: > 100 µM (inactive)
NCI-H460
  GI50: > 100 µM (inactive)
Malme-3M
  GI50: > 100 µM (inactive)
BT-549
  GI50: > 100 µM (inactive)
786-0
  GI50: > 100 µM (inactive)

## CC(C)(C)c1cc(C(C)(C)C)c2sc(=O)oc2c1O
A498
  GI50: 13.7 µM (inactive)
ACHN
  GI50: 12.1 µM (inactive)
T47D
  GI50: 6.14 µM (inactive)
Hs-578T
  GI50: 16.4 µM (inactive)
A549
  GI50: 13.2 µM (inactive)
K562
  GI50: 10.1 µM (inactive)
OVCAR-4
  GI50: 13.6 µM (inactive)
TK-10
  GI50: 11.8 µM (inactive)
MCF7
  GI50: 12.6 µM (inactive)
HT-29
  GI50: 17.4 µM (inactive)
MDA-MB-435
  GI50: 12.4 µM (inactive)
LOX IMVI
  GI50: 14 µM (inactive)
SN12C
  GI50: 12.4 µM (inactive)
MDA-MB-231
  GI50: 18.4 µM (inactive)
PC-3
  GI50: 14.7 µM (inactive)
SR
  GI50: 4.98 µM (inactive)
NCI-H522
  GI50: 13.7 µM (inactive)
SNB-19
  GI50: 17.3 µM (inactive)
UACC-257
  GI50: 5.71 µM (inactive)
SNB-75
  GI50: 13.7 µM (inactive)
OVCAR-5
  GI50: 18.5 µM (inactive)
NCI/ADR-RES
  GI50: 16.3 µM (inactive)
DU-145
  GI50: 17.1 µM (inactive)
HCT-116
  GI50: 12.9 µM (inactive)
IGROV-1
  GI50: 14.2 µM (inactive)
SF-295
  GI50: 11.4 µM (inactive)
MDA-N
  GI50: 13.5 µM (inactive)
SF-539
  GI50: 16.1 µM (inactive)
HOP-62
  GI50: 17 µM (inactive)
SK-MEL-5
  GI50: 14.4 µM (inactive)
HL-60
  GI50: 5.6 µM (inactive)
OVCAR-8
  GI50: 16.3 µM (inactive)
KM12
  GI50: 14.1 µM (inactive)
NCI-H226
  GI50: 20.2 µM (inactive)
MOLT-4
  GI50: 8.26 µM (inactive)
SF-268
  GI50: 13.6 µM (inactive)
SK-MEL-28
  GI50: 16.3 µM (inactive)
CCRF-CEM
  GI50: 18.8 µM (inactive)
RXF 393
  GI50: 11.9 µM (inactive)
HCT-15
  GI50: 12.4 µM
EKVX
  GI50: 15 µM (inactive)
CAKI-1
  GI50: 12.4 µM (inactive)
OVCAR-3
  GI50: 11.8 µM (inactive)
SK-MEL-2
  GI50: 15.5 µM (inactive)
SK-OV-3
  GI50: 19.5 µM (inactive)
HOP-92
  GI50: 16.8 µM (inactive)
COLO 205
  GI50: 18.8 µM (inactive)
U-251
  GI50: 14.2 µM (inactive)
UO-31
  GI50: 11.6 µM (inactive)
RPMI-8226
  GI50: 21.3 µM (inactive)
M14
  GI50: 17.5 µM (inactive)
NCI-H460
  GI50: 5.61 µM (inactive)
Malme-3M
  GI50: 16.5 µM (inactive)
BT-549
  GI50: 18.7 µM (inactive)
786-0
  GI50: 16.4 µM (inactive)
